The compounds below were run against T1, recombinant purified human EHMT2 913-1193 (Homo sapiens, UniProt Q96KQ7) (assay: EHMT2 enzyme assay on histone peptide substrate (3H-SAM Flashplate)). Settings: read-out: EHMT2 PEP (IC50 μM).
T1 construct: Recombinant purified human EHMT2 913-1193 (55 μM) synthesized by Viva was used for all experiments; purchased Viva
T1 sequence (Q96KQ7 913-1193): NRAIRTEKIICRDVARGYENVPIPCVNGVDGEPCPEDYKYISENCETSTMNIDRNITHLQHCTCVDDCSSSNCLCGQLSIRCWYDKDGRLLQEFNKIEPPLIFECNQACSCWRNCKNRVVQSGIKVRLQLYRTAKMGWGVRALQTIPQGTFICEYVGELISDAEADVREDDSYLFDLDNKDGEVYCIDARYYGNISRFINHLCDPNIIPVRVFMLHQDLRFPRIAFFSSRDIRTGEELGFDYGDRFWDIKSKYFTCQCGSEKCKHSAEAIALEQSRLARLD
Format: biochemical
How it was run: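 Compounds (10-point 3-fold series, top 50 μM final, 2% DMSO) preincubated 30 min with 0.031 nM EHMT2 in 20 mM Bicine pH 7.5, 1 mM TCEP; reaction started with 3H-SAM and biotinylated H3 1-15 peptide, both at Km, run 60 min at room temperature. Flashplate capture; IC50 from four-parameter fit, triplicates.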

IC50 [µM] | SMILES
1 to 10 | CNc1cc(C)nc(Nc2ccc(OC)c(-c3nccc(NC)n3)c2)n1 [Compound 306]
< 0.1 | CNCc1cnn(-c2c(F)ccc(Nc3nc(C)cc(NC)n3)c2F)c1 [Compound 307]
1 to 10 | CNC1=Nc2cc(-c3cc4[nH]ccc4c(C(N)=O)n3)c(OC)cc2C12CCC2 [Compound 308]
1 to 10 | COc1cc2c(cc1-c1cc3[nH]ccc3cn1)N=C(NCC(N)=O)C21CCC1 [Compound 309]
1 to 10 | COc1cc(NC2CCNCC2)ccc1-c1[nH]c2cnccc2c1C [Compound 310]
> 10 | CNc1cc(C)nc(Nc2cnc(C)c(-c3cc4ccncc4[nH]3)c2)n1 [Compound 311]
0.1 to 1 | CNCc1ccnc(-c2cc(Nc3nc(C)cc(NC)n3)ccc2OC)c1 [Compound 313]
< 0.1 | CNC1=Nc2cc(-n3cc(CN4CCC4)cn3)c(OC)cc2C12CCC2 [Compound 314]
0.1 to 1 | CNc1cc(C)nc(Nc2ccc(F)c(-n3cc(CN4CCC4)cn3)c2F)n1 [Compound 315]
< 0.1 | CNc1cc(C)nc(Nc2ccc(OC)c(-c3[nH]c4cnccc4c3CNC(C)=O)c2)n1 [Compound 316]
< 0.1 | CNCc1cnn(-c2c(OC)ccc(Nc3nc(C)cc(NC)n3)c2F)c1 [Compound 317, N2-(2-fluoro-4-methoxy-3-(4-((methylamino)methyl)-1H-pyrazol-1-yl)phenyl)-N4,6-dimethylpyrimidine-2,4-diamine]
0.1 to 1 | CNCc1cnn(-c2c(F)ccc(Nc3nc(C)cc(NC)n3)c2OC)c1 [Compound 318]
< 0.1 | CNCc1cnn(-c2cc(Nc3nc(C)cc(NC)n3)ccc2Br)c1 [Compound 319]
< 0.1 | CCc1ccc(Nc2nc(C)cc(NC)n2)cc1-n1cc(CNC)cn1 [Compound 320]
< 0.1 | CNc1cc(C)nc(Nc2ccc(OC)c(-n3cc(C4CCCN4)cn3)c2)n1 (centres unmarked) [Compound 321]
< 0.1 | CNC1=Nc2cc(-n3cc(C4CCCN4)cn3)c(OC)cc2C12CCC2 (centres unmarked) [Compound 322]
< 0.1 | CNCc1cn(-c2cc(Nc3nc(C)cc(NC)n3)ccc2OC)nc1F [Compound 323]
0.1 to 1 | CNCc1cc(-c2cc(Nc3nc(C)cc(NC)n3)ccc2OC)on1 [Compound 324]
< 0.1 | CNCc1cnn(-c2cc(Nc3nc(C)cc(NC)n3)ccc2C(F)(F)F)c1 [Compound 325]
< 0.1 | CNC1=Nc2cc(-n3cc(C4CCCN4)cn3)c(Cl)cc2C12CCC2 (centres unmarked) [Compound 326]
< 0.1 | CNCc1cnn(-c2c(Cl)ccc(Nc3nc(C)cc(NC)n3)c2Cl)c1 [Compound 327]
< 0.1 | CNCc1cnn(-c2c(Cl)ccc(Nc3nc(C)cc(NC)n3)c2F)c1 [Compound 328]
< 0.1 | CNCc1cnn(-c2c(F)ccc(Nc3nc(C)cc(NC)n3)c2Cl)c1 [Compound 329]
< 0.1 | CNc1cc(C)nc(Nc2ccc(Cl)c(-n3cc(C4CCCN4)cn3)c2)n1 (centres unmarked) [Compound 330]
< 0.1 | CNCc1cc(-c2cc(Nc3nc(C)cc(NC)n3)ccc2OC)no1 [Compound 331]
< 0.1 | CNc1cc(C)nc(Nc2ccc(OC)c(-c3cc4[nH]cc(C)c4cn3)c2)n1 [Compound 386]

— patent US20220235065A1 (Epizyme, Inc., priority 2016, published 2022)
